Consider 28 compounds from patent publication EP0674651B1, “SUBSTITUTED 6-AZAANDROSTENONES” (priority 1992, dated 1994).

Some results are limits rather than exact numbers.

For assay [1], the target named is T1, human type 2 5α-reductase (Homo sapiens, UniProt P31213).
T1 sequence (P31213 1-254): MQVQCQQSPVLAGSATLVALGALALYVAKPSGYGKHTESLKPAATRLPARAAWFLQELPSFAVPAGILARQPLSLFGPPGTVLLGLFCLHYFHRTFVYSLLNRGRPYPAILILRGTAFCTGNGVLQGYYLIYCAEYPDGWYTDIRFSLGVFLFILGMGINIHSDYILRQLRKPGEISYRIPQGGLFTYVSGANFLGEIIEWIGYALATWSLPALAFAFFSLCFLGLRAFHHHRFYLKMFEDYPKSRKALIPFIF
As to the kind of experiment: 5α-reductase in vitro inhibitory activity, human type 2.
Method: (§1) Microsomes were prepared by homogenization of the tissue or cells, followed by differential centrifugation of the homogenate. […] Corresponding incubations were carried out with no test compound as a control study.
The percentage of conversion of testosterone to DHT in the presence of test compounds compared to the corresponding conversion in the control study was estimated using high pressure liquid chromatography (HPLC) with radiochemical detection.

The target of assay [2] is T2, human type 1 5α-reductase (Homo sapiens, UniProt P18405).
T2 sequence (P18405 1-259): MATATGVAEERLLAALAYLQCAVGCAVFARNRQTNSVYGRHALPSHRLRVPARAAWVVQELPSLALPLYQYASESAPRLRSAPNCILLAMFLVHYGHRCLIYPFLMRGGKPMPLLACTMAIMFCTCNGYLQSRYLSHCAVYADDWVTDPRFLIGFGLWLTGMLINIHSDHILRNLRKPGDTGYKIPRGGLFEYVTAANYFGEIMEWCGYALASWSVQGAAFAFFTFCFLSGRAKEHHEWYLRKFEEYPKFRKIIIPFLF
As to the kind of experiment: 5α-reductase in vitro inhibitory activity, human type 1.
Method: as §1
For type 2 IC50 measurements, assay components except testosterone were preincubated for 20 minutes at pH 6.0, and following the addition of 8nM testosterone the assays were allowed to proceed for 20-40 minutes. The percentage of conversion of testosterone to DHT in the presence of test compounds compared to the corresponding conversion in the control study was estimated using high pressure liquid chromatography (HPLC) with radiochemical detection.

Consider `CC1=C2NC[C@H]3[C@@H]4CC[C@H](C(=O)Nc5cc(C(C)(C)C)ccc5C(C)(C)C)[C@@]4(C)CC[C@@H]3[C@@]2(C)CCC1=O` [Compound 118, 17β-N-(2,5-Di-t-butyl)phenyl-carbamoyl-6-azaandrost-4-methyl-4-en-3-one], for which the IC50 in assay [1] and in assay [2] was under 10 nM throughout. As for `CCOC(=O)c1ccc(NC(=O)[C@H]2CC[C@H]3[C@@H]4CNC5=CC(=O)CC[C@]5(C)[C@H]4CC[C@]23C)cc1` [Compound 134, 17β-N-(4-Carboethoxy)phenyl-carbamoyl-6-azaandrost-4-en-3-one], the IC50 was under 10 nM in assay [1] and 10 to 100 nM in assay [2]. In the case of `CC1CCC(C(C)C)C(OC(=O)OC[C@H]2CC[C@H]3[C@@H]4CNC5=CC(=O)CC[C@]5(C)[C@H]4CC[C@]23C)C1` (stereo partly drawn) [Compound 89, 17β-Hydroxymethyl-(menthylcarbonate)-6-azaandrost-4-en-3-one], the IC50 in assay [1] was under 10 nM; in assay [2], 10 to 100 nM. The matching figures for `CC(C)(C)c1ccc(C2(NC(=O)[C@H]3CC[C@H]4[C@@H]5CNC6=CC(=O)CC[C@]6(C)[C@H]5CC[C@]34C)C3CCCC2CCC3)cc1` (stereo partly drawn) [Compound 144, 17β-N-9-(4-t-Butylphenyl)bicyclo[3.3.1]nonyl-carbamoyl-6-azaandrost-4-en-3-one]: under 10 nM and under 10 nM.

As for `COc1ccc(C(C)(C)C)cc1NC(=O)[C@H]1CC[C@H]2[C@@H]3CNC4=CC(=O)CC[C@]4(C)[C@H]3CC[C@]12C` [Compound 128, 17β-N-(2-Methoxy-5-t-butyl)phenyl-carbamoyl-6-azaandrost-4-en-3-one], the IC50 in assay [1] and in assay [2] was under 10 nM in each case.

Take `C[C@]12CC[C@H]3[C@@H](CNC4=CC(=O)CC[C@@]43C)[C@@H]1CC[C@@H]2C(=O)NC1(c2ccc(Cl)cc2)CCCCC1` [Compound 146, 17β-N-1-(4-Chlorophenyl)cyclohexyl-carbamoyl-6-azaandrost-4-en-3-one]: the IC50 in assay [1] and in assay [2] was under 10 nM in each case. For the compound `CC(C)(C)c1ccc(C2(NC(=O)[C@H]3CC[C@H]4[C@@H]5CNC6=CC(=O)CC[C@]6(C)[C@H]5CC[C@]34C)CCSCC2)cc1` [Compound 143, 17β-N-4-(4-t-Butylphenyl)tetrahydrothiopyranyl-carbamoyl-6-azaandrost-4-en-3-one], the IC50 in assay [1] and in assay [2] was under 10 nM each time. In the case of `CCC1(CC)CC1(NC(=O)[C@H]1CC[C@H]2[C@@H]3CNC4=CC(=O)CC[C@]4(C)[C@H]3CC[C@]12C)c1ccc(-c2ccccc2)cc1` (stereo partly drawn) [Compound 130, 17β-N-(1-(4-Biphenyl)-2,2-diethyl)cyclopropyl-carbamoyl-6-azaandrost-4-en-3-one], the IC50 in assay [1] and in assay [2] was under 10 nM each time. As to `C[C@]12CC[C@H]3[C@@H](CNC4=CC(=O)CC[C@@]43C)[C@@H]1CC[C@@H]2C(=O)NC1(c2ccc(F)cc2)CCCCC1` [Compound 109, 17β-N-1-(4-Fluorophenyl)cyclohexyl-carbamoyl-6-azaandrost-4-en-3-one], the IC50 in assay [1] and in assay [2] was under 10 nM in each case. Turning to `CC1(C)CC(NC(=O)[C@H]2CC[C@H]3[C@@H]4CNC5=CC(=O)CC[C@]5(C)[C@H]4CC[C@]23C)CC(C)(C)C1` [Compound 59, 17β-N-(3,5-Tetramethyl)cyclohexyl-carbamoyl-6-azaandrost-4-en-3-one], the IC50 is 10 to 100 nM in assay [1] and over 100 nM in assay [2].

Take `CC1(C)Cc2ccccc2C1NC(=O)[C@H]1CC[C@H]2[C@@H]3CNC4=CC(=O)CC[C@]4(C)[C@H]3CC[C@]12C` (stereo partly drawn) [Compound 110, 17β-N-1-(2,2-Dimethyl)indanyl-carbamoyl-6-azaandrost-4-en-3-one]: the IC50 in assay [1] was under 10 nM; in assay [2], 10 to 100 nM. The matching figures for `CC(C)(C)c1ccc(-c2ccc(C(F)(F)F)cc2NC(=O)[C@H]2CC[C@H]3[C@@H]4CNC5=CC(=O)CC[C@]5(C)[C@H]4CC[C@]23C)cc1` [Compound 135]: under 10 nM and over 100 nM.

Regarding `CCC(CC)(NC(=O)[C@H]1CC[C@H]2[C@@H]3CNC4=CC(=O)CC[C@]4(C)[C@H]3CC[C@]12C)c1ccccc1` [Compound 103, 17β-N-(1-Ethyl-1-phenyl)propyl-carbamoyl-6-azaandrost-4-en-3-one], the results for the IC50 in assay [1] and in assay [2] were under 10 nM and 10 to 100 nM, respectively.

On to `CC(C)(C)c1ccc(C#N)cc1NC(=O)[C@H]1CC[C@H]2[C@@H]3CNC4=CC(=O)CC[C@]4(C)[C@H]3CC[C@]12C` [Compound 78, 17β-N-(2-t-Butyl-5-cyano)phenyl-carbamoyl-6-azaandrost-4-en-3-one], for which the IC50 in assay [1] was under 10 nM; in assay [2], 10 to 100 nM. As to `Cc1ccc(Oc2ccc(C(F)(F)F)cc2NC(=O)[C@H]2CC[C@H]3[C@@H]4CNC5=CC(=O)CC[C@]5(C)[C@H]4CC[C@]23C)cc1` [Compound 79, 17β-N-(2-(O-4-Tolyl)-5-trifluoromethyl)phenyl-carbamoyl-6-azaandrost-4-en-3-one], the IC50 in assay [1] was under 10 nM; in assay [2] it was 10 to 100 nM. The matching figures for `CC(C)NC(=O)N(C(=O)[C@H]1CC[C@H]2[C@@H]3CNC4=CC(=O)CC[C@]4(C)[C@H]3CC[C@]12C)C(C)C` [Compound 95, 17β-(N-i-Propyl-N-(N-i-propylcarbamoyl))-carbamoyl-6-azaandrost-4-en-3-one]: 10 to 100 nM and over 100 nM. Turning to `CC(C)(C)c1ccc(NC(=O)[C@H]2CC[C@H]3[C@@H]4CNC5=CC(=O)CC[C@]5(C)[C@H]4CC[C@]23C)c(C(F)(F)F)c1` [Compound 100, 17β-N-(4-t-Butyl-2-trifluoromethyl)phenyl-carbamoyl-6-azaandrost-4-en-3-one], the IC50 in assay [1] and in assay [2] was under 10 nM in each case. Turning to `CCOc1ccc(OCC)c(NC(=O)[C@H]2CC[C@H]3[C@@H]4CNC5=CC(=O)CC[C@]5(C)[C@H]4CC[C@]23C)c1` [Compound 119, 17β-N-(2,5-Diethoxy)phenyl-carbamoyl-6-azaandrost-4-en-3-one], the IC50 is under 10 nM in assay [1] and 10 to 100 nM in assay [2]. In the same order, the values of `C[C@]12CC[C@H]3[C@@H](CNC4=CC(=O)CC[C@@]43C)[C@@H]1CC[C@@H]2C(=O)NC1(c2ccc(F)cc2)CCCC1` [Compound 104, 17β-N-1-(4-Fluorophenyl)cyclopentyl-carbamoyl-6-azaandrost-4-en-3-one] are under 10 nM and 10 to 100 nM.

As for `C[C@]12CC[C@H]3[C@@H](CNC4=CC(=O)CC[C@@]43C)[C@@H]1CC[C@@H]2C(=O)NC1(c2cccc(C(F)(F)F)c2)CCCC1` [Compound 102, 17β-N-1-(3-Trifluoromethylphenyl)cyclopentyl-carbamoyl-6-azaandrost-4-en-3-one], the IC50 in assay [1] and in assay [2] was under 10 nM throughout. In turn, `CC(C)(C)N(O)C(=O)[C@H]1CC[C@H]2[C@@H]3CNC4=CC(=O)CC[C@]4(C)[C@H]3CC[C@]12C` [Compound 41, 17β-N-Hydroxy-N-t-butyl-carbamoyl-6-azaandrost-4-en-3-one] had an IC50 in assay [2] of 10 to 100 nM. Consider `COc1ccc(C2(NC(=O)[C@H]3CC[C@H]4[C@@H]5CNC6=CC(=O)CC[C@]6(C)[C@H]5CC[C@]34C)CCCCC2)cc1` [Compound 111, 17β-N-1-(4-Methoxyphenyl)cyclohexyl-carbamoyl-6-azaandrost-4-en-3-one], for which the IC50 in assay [1] and in assay [2] was under 10 nM in each case. Regarding `COc1ccc(C2(NC(=O)[C@H]3CC[C@H]4[C@@H]5CNC6=CC(=O)CC[C@]6(C)[C@H]5CC[C@]34C)CCCC2)cc1` [Compound 115, 17β-N-1-(4-Methoxyphenyl)cyclopentyl-carbamoyl-6-azaandrost-4-en-3-one], the IC50 in assay [1] and in assay [2] was under 10 nM throughout. `CC(C)(C)c1ccc(C(F)(F)F)cc1NC(=O)[C@H]1CC[C@H]2[C@@H]3CNC4=CC(=O)CC[C@]4(C)[C@H]3CC[C@]12C` [Compound 87, 17β-N-(2-t-Butyl-5-trifluoromethyl)phenyl-carbamoyl-6-azaandrost-4-en-3-one]: the IC50 in assay [1] and in assay [2] was under 10 nM in each case. Turning to `C[C@]12CC[C@H]3[C@@H](CNC4=CC(=O)CC[C@@]43C)[C@@H]1CC[C@@H]2COC(=O)Oc1ccccc1` [Compound 90, 17β-Hydroxymethyl-(phenylcarbonate)-6-azaandrost-4-en-3-one], the IC50 in assay [1] and in assay [2] was under 10 nM in each case. As to `CC(=O)NC[C@H]1CC[C@H]2[C@@H]3CNC4=CC(=O)CC[C@]4(C)[C@H]3CC[C@]12C` [Compound 97, 17β-Aminomethyl-(acetamide)-6-azaandrost-4-en-3-one], the IC50 in assay [1] is 10 to 100 nM; in assay [2], over 100 nM. `CC(C)(NC(=O)[C@H]1CC[C@H]2[C@@H]3CNC4=CC(=O)CC[C@]4(C)[C@H]3CC[C@]12C)c1ccccc1` [Compound 63, 17β-N-(1-Methyl-1-phenyl)ethyl-carbamoyl-6-azaandrost-4-en-3-one]: the IC50 in assay [1] was under 10 nM; in assay [2], over 100 nM. Consider `C[C@]12CC[C@H]3[C@@H](CNC4=CC(=O)CC[C@@]43C)[C@@H]1CC[C@@H]2C(=O)NC(c1ccc(F)cc1)c1ccc(F)cc1` [Compound 24, 17β-N-Bis-(4-fluorophenyl)methyl-carbamoyl-6-azaandrost-4-en-3-one], for which the IC50 in assay [2] lay in the range of 10 to 100 nM.
